Results taken from patent US9650377B2, “Diazepinone derivatives” (Novartis AG, priority 2012, dated 2017).

Tests used:
human mGluR5a receptors = human mGluR5a receptors (Homo sapiens (Human), UniProt P41594); experiment: Inhibition of glutamate-induced elevation of intracellular calcium in L(tk−) cells expressing human mGluR5a receptors; format: cell-based; details: read-out: mGluR5 IC50
From the text: Activity of compounds of the present invention was examined by determination to what extent the glutamate-induced elevation of the intracellular calcium concentration in L(tk−) cells expressing human mGluR5a receptors (see L. P. Daggett et al., Neuropharm. Vol. 34, pages 871-886, 1995) is inhibited by utilizing methods as described e.g. by L. P. Daggett et al., Neuropharm. Vol. 34, pages 871-886 (1995) and P. J. Flor et al., J. Neurochem. Vol. 67, pages 58-63 (1996).
(§1) Activity of compounds of the present invention with respect to mGluR1 antagonism was examined by an assay based on measurements of L-glutamate induced intracellular calcium increases using a 96 well plate-based Fluorometric Imaging Plate Reader (FLIPR), and CHO cells stably expressing human mGluR1.

human mGluR1 = human mGluR1 (Homo sapiens (Human), UniProt Q13255); experiment: mGluR1 antagonism: L-glutamate induced intracellular calcium increases, FLIPR, CHO cells stably expressing human mGluR1; format: cell-based; details: inhibition of glutamate-induced elevation of intracellular calcium
From the text: as §1, with “mGluR1. L-glutamate induced robust calcium responses via human mGluR1 in a concentration-dependent manner and in the low micromolar range. The table below represents IC50 values of the inhibition of the glutamate-induced elevation of the intracellular calcium concentration.” for “mGluR1.”

Chain of human mGluR1 (Q13255 19-1194): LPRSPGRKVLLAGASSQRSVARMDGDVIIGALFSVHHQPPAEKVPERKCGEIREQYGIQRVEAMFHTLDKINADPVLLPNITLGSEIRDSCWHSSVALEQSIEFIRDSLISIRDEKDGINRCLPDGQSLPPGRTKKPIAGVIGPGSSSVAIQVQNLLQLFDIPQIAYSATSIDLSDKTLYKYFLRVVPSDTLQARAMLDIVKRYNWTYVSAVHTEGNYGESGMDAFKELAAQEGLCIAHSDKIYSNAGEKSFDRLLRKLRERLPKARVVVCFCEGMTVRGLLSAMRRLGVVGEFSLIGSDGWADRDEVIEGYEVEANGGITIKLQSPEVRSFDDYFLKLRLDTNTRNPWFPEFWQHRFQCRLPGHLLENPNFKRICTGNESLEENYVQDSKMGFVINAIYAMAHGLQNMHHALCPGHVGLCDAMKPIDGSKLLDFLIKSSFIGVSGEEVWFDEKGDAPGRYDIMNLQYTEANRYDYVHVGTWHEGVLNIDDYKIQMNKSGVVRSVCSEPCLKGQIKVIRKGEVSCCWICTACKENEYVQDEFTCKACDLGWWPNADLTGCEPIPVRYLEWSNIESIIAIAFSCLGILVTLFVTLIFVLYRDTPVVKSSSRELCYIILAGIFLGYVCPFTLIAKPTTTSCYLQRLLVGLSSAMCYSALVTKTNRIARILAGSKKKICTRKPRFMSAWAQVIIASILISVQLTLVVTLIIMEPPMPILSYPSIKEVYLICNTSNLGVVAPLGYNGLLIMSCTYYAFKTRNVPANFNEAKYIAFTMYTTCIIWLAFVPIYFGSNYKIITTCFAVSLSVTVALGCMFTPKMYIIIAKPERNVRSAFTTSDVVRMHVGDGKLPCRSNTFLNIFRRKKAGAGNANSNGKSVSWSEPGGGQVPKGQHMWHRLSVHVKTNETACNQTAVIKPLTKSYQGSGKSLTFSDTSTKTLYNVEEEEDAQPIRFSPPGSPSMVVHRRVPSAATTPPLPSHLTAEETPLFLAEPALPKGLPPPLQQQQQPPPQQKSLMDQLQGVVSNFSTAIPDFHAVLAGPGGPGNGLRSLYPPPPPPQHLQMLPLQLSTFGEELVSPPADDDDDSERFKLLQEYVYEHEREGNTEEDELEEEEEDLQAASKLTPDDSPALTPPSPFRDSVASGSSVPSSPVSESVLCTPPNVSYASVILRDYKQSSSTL
Chain of human mGluR5a receptors (P41594 other isoform, or with tags, fused parts or gaps): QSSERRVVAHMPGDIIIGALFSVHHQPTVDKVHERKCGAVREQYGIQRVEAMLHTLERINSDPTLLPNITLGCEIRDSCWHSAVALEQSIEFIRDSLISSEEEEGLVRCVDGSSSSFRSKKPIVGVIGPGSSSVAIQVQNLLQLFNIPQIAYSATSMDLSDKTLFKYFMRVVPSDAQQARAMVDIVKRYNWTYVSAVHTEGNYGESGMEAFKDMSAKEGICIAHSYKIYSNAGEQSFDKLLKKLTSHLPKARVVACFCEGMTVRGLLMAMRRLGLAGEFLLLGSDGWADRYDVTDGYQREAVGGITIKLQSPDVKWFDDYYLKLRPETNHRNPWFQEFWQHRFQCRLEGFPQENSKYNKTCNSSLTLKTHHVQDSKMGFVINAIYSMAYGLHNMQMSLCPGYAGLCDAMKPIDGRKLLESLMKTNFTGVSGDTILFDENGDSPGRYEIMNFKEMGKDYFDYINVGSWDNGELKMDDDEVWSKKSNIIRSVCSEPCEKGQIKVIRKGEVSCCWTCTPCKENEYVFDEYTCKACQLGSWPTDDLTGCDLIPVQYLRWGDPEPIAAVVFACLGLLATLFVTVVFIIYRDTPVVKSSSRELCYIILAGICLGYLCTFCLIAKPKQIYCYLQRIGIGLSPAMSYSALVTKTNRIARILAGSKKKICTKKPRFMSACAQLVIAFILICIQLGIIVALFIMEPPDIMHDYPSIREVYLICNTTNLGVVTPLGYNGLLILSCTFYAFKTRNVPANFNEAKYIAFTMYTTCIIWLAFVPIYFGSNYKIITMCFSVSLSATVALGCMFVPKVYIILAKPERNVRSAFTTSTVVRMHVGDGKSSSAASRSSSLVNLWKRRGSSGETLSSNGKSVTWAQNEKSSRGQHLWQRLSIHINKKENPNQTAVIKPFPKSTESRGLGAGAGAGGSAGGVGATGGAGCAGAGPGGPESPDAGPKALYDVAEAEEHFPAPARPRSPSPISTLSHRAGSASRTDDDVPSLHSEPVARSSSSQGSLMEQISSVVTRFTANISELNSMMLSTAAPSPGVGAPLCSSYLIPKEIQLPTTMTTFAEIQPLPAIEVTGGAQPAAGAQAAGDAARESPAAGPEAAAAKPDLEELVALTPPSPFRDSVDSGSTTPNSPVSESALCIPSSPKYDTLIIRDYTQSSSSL

Structure (SMILES): Cc1nc(-c2cccc3c2CCN2C(=O)CN=C(n4cnc(C5CCC5)c4)C=C32)co1 [Example 108b, 2-(4-cyclobutyl-1H-imidazol-1-yl)-9-(2-methyloxazol-4-yl)-7,8-dihydro-[1,4]diazepino[7,1-a]isoquinolin-5(4H)-one]
- IC50 (human mGluR5a receptors): 23 nM
- IC50 (human mGluR1): 1920 nM

Structure (SMILES): Cn1cc(C2=NCC(=O)N3CCc4c(I)cccc4C3=C2)cn1 [Example 32, 9-iodo-2-(1-methyl-1H-pyrazol-4-yl)-7,8-dihydro-[1,4]diazepino[7,1-a]isoquinolin-5(4H)-one]
- IC50 (human mGluR5a receptors): 10 nM
- IC50 (human mGluR1): 35 nM

Structure (SMILES): CCOCc1cn(C2=NCC(=O)N3CCc4c(cccc4-c4nc(C)cs4)C3=C2)cn1 [Example 88i, 2-(4-(ethoxymethyl)-1H-imidazol-1-yl)-9-(4-methylthiazol-2-yl)-7,8-dihydro-[1,4]diazepino[7,1-a]isoquinolin-5(4H)-one]
- IC50 (human mGluR5a receptors): 340 nM
- IC50 (human mGluR1): > 10000 nM

Structure (SMILES): CCc1cn(C2=NCC(=O)N3CCc4c(cccc4C(C)O)C3=C2)cn1 (racemic) [Example 115, 2-(4-ethyl-1H-imidazol-1-yl)-9-(1-hydroxyethyl)-7,8-dihydro-[1,4]diazepino[7,1-a]isoquinolin-5(4H)-one]
- IC50 (human mGluR5a receptors): 495 nM
- IC50 (human mGluR1): > 10000 nM
